According to ChEMBL document CHEMBL4417631, “Oral peptide inhibitors of interleukin-23 receptor and their use to treat inflammatory bowel diseases” (2017):
*1 amine or outer side, *2 acyl side, *3 side chain or, on linkers, in order; H or OH if unused. Where a SMILES comes first, the peptide text is derived from it. Bridges are numbered along the chain shown (N, C = ends). [ ]: non-standard residue; d: D form. Abu(4-yl) = O=C([C@H](CC[*:3])N[*:1])[*:2]; 2Nal = N[C@@H](Cc1ccc2ccccc2c1)C(=O)O; αMeK = C[C@](N)(CCCCN)C(=O)O

Legend:
Interleukin-23 receptor [1] = target: T1, Interleukin-23 receptor (Homo sapiens, UniProt Q5VWK5); assay: Inhibition of interleukin-23 binding to human interleukin-23 receptor incubated for 2 hrs by competitive binding ELISA
T1 sequence (Q5VWK5 whole entry): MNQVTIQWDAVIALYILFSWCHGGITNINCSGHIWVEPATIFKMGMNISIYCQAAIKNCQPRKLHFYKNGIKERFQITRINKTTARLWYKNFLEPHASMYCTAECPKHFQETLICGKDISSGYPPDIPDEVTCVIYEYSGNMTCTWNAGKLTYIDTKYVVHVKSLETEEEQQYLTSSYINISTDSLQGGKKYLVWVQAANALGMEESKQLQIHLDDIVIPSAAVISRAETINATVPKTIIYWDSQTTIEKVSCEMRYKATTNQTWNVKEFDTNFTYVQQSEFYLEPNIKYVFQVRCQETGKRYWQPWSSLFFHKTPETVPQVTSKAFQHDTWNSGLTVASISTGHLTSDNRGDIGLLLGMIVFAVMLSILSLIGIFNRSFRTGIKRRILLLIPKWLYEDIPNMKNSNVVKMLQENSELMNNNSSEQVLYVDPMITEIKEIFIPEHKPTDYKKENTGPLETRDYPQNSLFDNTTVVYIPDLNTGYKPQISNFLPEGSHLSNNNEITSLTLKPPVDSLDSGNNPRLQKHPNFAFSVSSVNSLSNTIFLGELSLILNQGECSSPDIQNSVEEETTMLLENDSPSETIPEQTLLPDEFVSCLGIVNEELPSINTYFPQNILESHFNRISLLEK

Interleukin-23 receptor [2] = target: T1, Interleukin-23 receptor; assay: Inhibition of interleukin-23 receptor in human DB cells assessed as reduction in IL-23-stimulated STAT3 phosphorylation incubated for 30 mins by HTRF assay; format: cell-based
[3] = Inhibition of interleukin-23 binding to rat interleukin-23 receptor incubated for 2 hrs by competitive binding ELISA
[4] = Half life in simulated gastric fluid at 20 uM by LC-MS/MS analysis; format: ADME
[5] = Half life in simulated intestinal fluid at 20 uM by LC-MS/MS analysis; format: ADME

Row | Structure (SMILES) | IC50 (Interleukin-23 receptor [1]) [nM] | IC50 (Interleukin-23 receptor [2]) [nM] | IC50 [3] [nM] | half-life at 20 µM [4] [h] | half-life at 20 µM [5] [h]
1 | COc1ccc(C[C@H](NC(=O)[C@@H]2CSCC[C@H](NC(=O)[C@@H](CCCCN)NC(C)=O)C(=O)N[C@@H](CCC(N)=O)C(=O)N[C@@H]([C@@H](C)O)C(=O)N[C@@H](Cc3c[nH]c4ccccc34)C(=O)N[C@@H](CCC(N)=O)C(=O)N2)C(=O)N[C@@H](Cc2ccc3ccccc3c2)C(=O)N[C@@](C)(CC(C)C)C(=O)N[C@@H](CCC(=O)O)C(=O)N[C@@H](CC(N)=O)C(=O)NCC(N)=O)cc1 | < 10 | < 10 | 10 to 25 | < 1 | 1 to 2
2 | COc1ccc(C[C@H](NC(=O)[C@@H]2CSCC[C@H](NC(C)=O)C(=O)N[C@@H](CCC(N)=O)C(=O)N[C@@H]([C@@H](C)O)C(=O)N[C@@H](Cc3c[nH]c4ccccc34)C(=O)N[C@@H](CCC(N)=O)C(=O)N2)C(=O)N[C@@H](Cc2c[nH]c3ccccc23)C(=O)N[C@@](C)(CCCCN)C(=O)N[C@@H](CCCCNC(C)=O)C(=O)N[C@@H](CC(N)=O)C(=O)NCC(N)=O)cc1 | 10 to 25 | 10 to 25 | 10 to 25 | < 1 | > 6
3 | CC(=O)NCCCC[C@H](NC(=O)[C@](C)(CCCCN)NC(=O)[C@H](Cc1ccc2ccccc2c1)NC(=O)[C@H](Cc1ccc(OCCN)cc1)NC(=O)[C@@H]1CSCC[C@H](NC(C)=O)C(=O)N[C@@H](CCC(N)=O)C(=O)N[C@@H]([C@@H](C)O)C(=O)N[C@@H](Cc2c[nH]c3ccccc23)C(=O)N[C@@H](CCC(N)=O)C(=O)N1)C(=O)N[C@@H](CC(N)=O)C(=O)NCC(N)=O | < 10 | < 10 | < 10 | > 6 | > 6
4 | CC(=O)NCCOc1ccc(C[C@H](NC(=O)[C@@H]2CSCC[C@H](NC(C)=O)C(=O)N[C@@H](CCC(N)=O)C(=O)N[C@@H]([C@@H](C)O)C(=O)N[C@@H](Cc3c[nH]c4ccccc34)C(=O)N[C@@H](CCC(N)=O)C(=O)N2)C(=O)N[C@@H](Cc2ccc3ccccc3c2)C(=O)N[C@@](C)(CCCCN)C(=O)N[C@@H](CCC(=O)O)C(=O)N[C@@H](CC(N)=O)C(=O)NCC(N)=O)cc1 | < 10 | < 10 | < 10 | < 1 | 1 to 2
5 | CC(=O)NCCCC[C@H](NC(=O)[C@](C)(CCCCN)NC(=O)[C@H](Cc1ccc2ccccc2c1)NC(=O)[C@H](Cc1ccc(OCCN)cc1)NC(=O)[C@@H](NC(=O)[C@H](CCC(N)=O)NC(=O)[C@H](Cc1c[nH]c2ccccc12)NC(=O)[C@@H](NC(=O)[C@H](CCC(N)=O)NC(=O)[C@@H](NC(C)=O)C(C)(C)S)[C@@H](C)O)C(C)(C)S)C(=O)N[C@@H](CC(N)=O)C(=O)N[C@@H](CC(N)=O)C(N)=O | < 10 | < 10 | 10 to 25 | > 6 | > 6
6 | CC(=O)N[C@H](C(=O)N[C@@H](CCC(N)=O)C(=O)N[C@H](C(=O)N[C@@H](Cc1c[nH]c2ccccc12)C(=O)N[C@@H](CCC(N)=O)C(=O)N[C@H](C(=O)N[C@@H](Cc1ccc(OCCN)cc1)C(=O)N[C@@H](Cc1ccc2ccccc2c1)C(=O)N[C@@](C)(CC(C)C)C(=O)N[C@@H](CCC(N)=O)C(=O)N[C@@H](CC(N)=O)C(=O)N[C@@H](CC(N)=O)C(N)=O)C(C)(C)S)[C@@H](C)O)C(C)(C)S | < 10 | < 10 | < 10 | > 6 | > 6
7 | COc1ccc(C[C@H](NC(=O)[C@@H]2CSCC[C@H](NC(C)=O)C(=O)N[C@@H](CCC(N)=O)C(=O)N[C@@H]([C@@H](C)O)C(=O)N[C@@H](Cc3c[nH]c4ccccc34)C(=O)N[C@@H](CCC(N)=O)C(=O)N2)C(=O)N[C@@H](Cc2c[nH]c3ccccc23)C(=O)N[C@@](C)(CCCN)C(=O)N[C@@H](CCC(=O)O)C(=O)N[C@@H](CC(N)=O)C(=O)NCC(N)=O)cc1 | 25 to 100 | < 10 | 25 to 100 | < 1 | 3 to 6
8 | CC(=O)NCCCC[C@H](NC(=O)[C@](C)(CCCCN)NC(=O)[C@H](Cc1ccc2ccccc2c1)NC(=O)[C@H](Cc1ccc(OCCN)cc1)NC(=O)[C@@H]1CSCC[C@H](NC(=O)CCC(=O)O)C(=O)N[C@@H](CCC(N)=O)C(=O)N[C@@H]([C@@H](C)O)C(=O)N[C@@H](Cc2c[nH]c3ccccc23)C(=O)N[C@@H](CCC(N)=O)C(=O)N1)C(=O)N[C@@H](CC(N)=O)C(=O)NCC(N)=O | < 10 | < 10 | < 10 | 3 to 6 | > 6
9 | CC(=O)N[C@H]1CCSC[C@@H](C(=O)N[C@@H](Cc2ccc(OCCN)cc2)C(=O)N[C@@H](Cc2ccc3ccccc3c2)C(=O)N[C@@](C)(CCCCN)C(=O)N[C@@H](CCC(=O)O)C(=O)N[C@@H](CC(N)=O)C(=O)NCC(N)=O)NC(=O)[C@H](CCC(N)=O)NC(=O)[C@H](Cc2c[nH]c3ccccc23)NC(=O)[C@H]([C@@H](C)O)NC(=O)[C@H](CCC(N)=O)NC1=O | < 10 | < 10 | < 10 | > 6 | > 6
10 | COc1ccc(C[C@H](NC(=O)[C@@H](NC(=O)[C@H](CCC(N)=O)NC(=O)[C@H](Cc2c[nH]c3ccccc23)NC(=O)[C@@H](NC(=O)[C@H](CCC(N)=O)NC(=O)[C@@H](NC(=O)CCC(=O)O)C(C)(C)S)[C@@H](C)O)C(C)(C)S)C(=O)N[C@@H](Cc2ccc3ccccc3c2)C(=O)N[C@@](C)(CCCCN)C(=O)N[C@@H](CCCCNC(C)=O)C(=O)N[C@@H](CC(N)=O)C(=O)NCC(N)=O)cc1 | 25 to 100 | < 10 | 25 to 100 | 3 to 6 | > 6
11 | COc1ccc(C[C@H](NC(=O)[C@H]2NC(=O)[C@H](CCC(N)=O)NC(=O)[C@H](Cc3c[nH]c4ccccc34)NC(=O)[C@H]([C@@H](C)O)NC(=O)[C@H](CCC(N)=O)NC(=O)[C@@H](NC(C)=O)CCSC2(C)C)C(=O)N[C@@H](Cc2ccc3ccccc3c2)C(=O)N[C@@](C)(CCCCN)C(=O)N[C@@H](CCCCNC(C)=O)C(=O)N[C@@H](CC(N)=O)C(=O)NCC(N)=O)cc1 | 25 to 100 | 25 to 100 | 100 to 1000 | 2 to 3 | 3 to 6
12 | COc1ccc(C[C@H](NC(=O)[C@@H]2CSCC[C@H](NC(C)=O)C(=O)N[C@@H](CCC(N)=O)C(=O)N[C@@H]([C@@H](C)O)C(=O)N[C@@H](Cc3c[nH]c4ccccc34)C(=O)N[C@@H](CCC(N)=O)C(=O)N2)C(=O)N[C@@H](Cc2ccc3ccccc3c2)C(=O)N[C@@](C)(CCCN)C(=O)N[C@@H](CCC(=O)O)C(=O)N[C@@H](CC(N)=O)C(=O)NCC(N)=O)cc1 | 10 to 25 | < 10 | 25 to 100 | < 1 | 2 to 3
13 | CC(=O)N[C@H]1CCSC[C@@H](C(=O)N[C@@H](Cc2ccc(OCCN)cc2)C(=O)N[C@@H](Cc2ccc3ccccc3c2)C(=O)NC2(C(=O)N[C@@H](CCC(=O)O)C(=O)N[C@@H](CC(N)=O)C(=O)N[C@@H](CC(N)=O)C(N)=O)CCCC2)NC(=O)[C@H](CCC(N)=O)NC(=O)[C@H](Cc2c[nH]c3ccccc23)NC(=O)[C@H]([C@@H](C)O)NC(=O)[C@H](CCC(N)=O)NC1=O | – | < 10 | < 10 | > 6 | 2 to 3
14 | CC(=O)N[C@H]1CCSC[C@@H](C(=O)N[C@@H](Cc2ccc3ccccc3c2)C(=O)N[C@@H](Cc2ccc3ccccc3c2)C(=O)N[C@@](C)(CCCCN)C(=O)N[C@@H](CCC(=O)O)C(=O)N[C@@H](CC(N)=O)C(=O)NCC(N)=O)NC(=O)[C@H](CCC(N)=O)NC(=O)[C@H](Cc2c[nH]c3ccccc23)NC(=O)[C@H]([C@@H](C)O)NC(=O)[C@H](CCC(N)=O)NC1=O (Ac-[Abu(4-yl)]QTWQC[2Nal][2Nal][αMeK]ENG-NH2; thioether 1-6) | 10 to 25 | – | 25 to 100 | < 1 | 3 to 6
15 | CC(=O)N[C@H]1CCSC[C@@H](C(=O)N[C@@H](Cc2ccc(OCCN)cc2)C(=O)N[C@@H](Cc2ccc3ccccc3c2)C(=O)NC2(C(=O)N[C@@H](CCC(=O)O)C(=O)N[C@@H](CC(N)=O)C(=O)N[C@@H](CC(N)=O)C(N)=O)CCNCC2)NC(=O)[C@H](CCC(N)=O)NC(=O)[C@H](Cc2c[nH]c3ccccc23)NC(=O)[C@H]([C@@H](C)O)NC(=O)[C@H](CCC(N)=O)NC1=O | – | < 10 | < 10 | > 6 | > 6
16 | CC(=O)N[C@H]1CCSC[C@@H](C(=O)N[C@@H](Cc2ccc(OCCN)cc2)C(=O)N[C@@H](Cc2c[nH]c3ccccc23)C(=O)N[C@@H](CCC(C)C)C(=O)N[C@@H](CCC(=O)O)C(=O)N[C@@H](CC(N)=O)C(=O)NCC(N)=O)NC(=O)[C@H](CCC(N)=O)NC(=O)[C@H](Cc2c[nH]c3ccccc23)NC(=O)[C@H]([C@@H](C)O)NC(=O)[C@H](CCC(N)=O)NC1=O | 10 to 25 | < 10 | – | < 1 | < 1
